Where a name gives a salt, the structure may show the parent alone.
Target: T1, NLRP3 inflammasome (Homo sapiens, UniProt Q96P20)
T1 construct: endogenous in cells; host or cells: THP-1 monocytic cells
Experiment: IL-1β secretion assay (NLRP3 IC50) in LPS-primed, nigericin-activated THP-1 cells, HTRF
Assay type: cell-based
Details: monocytic THP-1 cells; LPS 10 ng/mL 3 h priming, then compound + nigericin 10 μM 2 h; relative IC50, 10 concentrations, geometric mean
Description: Monocytic THP-1 cells were maintained in RPMI 1640 media (Gibco 21875)+10% FBS, (Gibco 10500)+1% penicillin/streptomycin (Gibco 15140-122). Cells were then plated at 40,000 cells per well in 384-well cell culture plates (CoRNning 3542) and maintained with RPMI1640 (Gibco 11835)+5% FBS (Gibco 10500). Activation of the NLRP3 inflammasome requires both an NF-kB-dependent priming step and the addition of a NLRP3 activator. The priming step was induced by LPS (10 ng/mL, InvivoGen ref tlrl-3pelps) for 3 h at 37° C., then compound, in a 1:3 serial dilution series in DMSO (final concentration DMSO 0.1%), and the activator nigericin (Sigma Aldrich, ref: SML1779) 10 μM (final concentration) were added to the cells and co-incubated for 2 hours. 16 μL supernatant was removed, and IL-1β levels were monitored using an HTRF assay (Human IL1b Kits HTRF Cisbio ref: 62HILBPEH) according to manufacturers' instructions.
Data were expressed as percentage of inhibition (I %) as compared to a maximum signal control containing no small molecule (I %=0%) according to the formula: 1%=(1−((Sample−Min))/((Max−Min)))×100, where: • Sample: Signal obtained in the presence of each compound tested, • Max: Maximum signal in the absence of compound added, • Min: Minimum or background signal obtained in the absence of activation signal.
Relative IC50 (IC50 rel) were obtained from a dose response curve with 10 concentrations. Final IC50 rels are expressed as the geometric mean.
Relative IC50 values were estimated with Biost@t-SPEED v2.4 internal software based on SAS system using the 4-parameter logistic model according to Ratkovsky and Reedy (D. A. Ratkovsky, T. J. Reedy, Choosing near-linear parameters in the four parameters logistic model radioligands and related assays. Biometrics, 42 (1986), 575-582): Y=A+C/((1+exp(−B*(log(X)−M)))), where: • A: Lower asymptote (BOTTOM), • A+C: Upper asymptote (TOP), • M: the logarithm of the concentration estimated at the inflexion point (the logarithm of the relative IC50), • B: Slope at the inflexion point of the curve.

T1 sequence (Q96P20 whole entry): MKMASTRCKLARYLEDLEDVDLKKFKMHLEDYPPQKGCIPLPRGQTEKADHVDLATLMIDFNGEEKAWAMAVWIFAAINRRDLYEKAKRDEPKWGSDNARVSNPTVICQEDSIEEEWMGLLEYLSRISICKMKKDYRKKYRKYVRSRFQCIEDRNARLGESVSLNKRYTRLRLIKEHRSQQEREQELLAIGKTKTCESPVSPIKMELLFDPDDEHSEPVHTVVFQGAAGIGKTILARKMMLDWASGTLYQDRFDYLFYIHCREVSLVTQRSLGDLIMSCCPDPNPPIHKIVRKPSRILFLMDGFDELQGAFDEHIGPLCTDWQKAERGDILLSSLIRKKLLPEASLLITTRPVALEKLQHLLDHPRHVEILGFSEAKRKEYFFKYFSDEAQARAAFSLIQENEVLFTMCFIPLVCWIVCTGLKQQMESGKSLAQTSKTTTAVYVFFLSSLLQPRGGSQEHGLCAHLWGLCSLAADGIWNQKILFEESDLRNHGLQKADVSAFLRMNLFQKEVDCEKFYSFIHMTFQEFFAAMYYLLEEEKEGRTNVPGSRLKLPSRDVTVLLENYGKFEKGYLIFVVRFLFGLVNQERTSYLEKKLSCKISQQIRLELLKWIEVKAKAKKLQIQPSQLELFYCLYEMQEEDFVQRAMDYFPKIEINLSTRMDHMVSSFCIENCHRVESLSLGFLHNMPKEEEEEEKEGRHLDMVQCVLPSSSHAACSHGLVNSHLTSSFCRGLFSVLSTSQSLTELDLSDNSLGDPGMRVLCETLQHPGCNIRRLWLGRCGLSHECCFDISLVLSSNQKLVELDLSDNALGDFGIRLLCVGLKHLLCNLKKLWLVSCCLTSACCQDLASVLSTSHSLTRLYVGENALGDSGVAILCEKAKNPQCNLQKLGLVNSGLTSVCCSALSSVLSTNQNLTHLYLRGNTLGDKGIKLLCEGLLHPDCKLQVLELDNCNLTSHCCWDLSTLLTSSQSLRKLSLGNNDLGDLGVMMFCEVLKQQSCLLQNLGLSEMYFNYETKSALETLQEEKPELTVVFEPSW

| SMILES | IC50 |
| --- | --- |
| Cc1cc(C)c(-c2ccc(N3CCO[C@@H]4COCC[C@@H]43)nn2)c(O)c1 (racemic) [Example 111, 2-[6-[rac-(4aS,8aS)-3,4a,5,7,8,8a-hexahydro-2H-pyrano[3,4-b][1,4]oxazin-1-yl]pyridazin-3-yl]-3,5-dimethyl-phenol] | 0.496 µM |
| Cc1cc(C)c(-c2ccc(N3CCO[C@@H]4CNC[C@H]43)nn2)c(O)c1 (racemic) [Example 190, 2-[6-[rac-(4aR,7aR)-3,4a,5,6,7,7a-hexahydro-2H-pyrrolo[3,4-b][1,4]oxazin-4-yl]pyridazin-3-yl]-3,5-dimethylphenol] | 1.15 µM |
| CC(=O)N1C[C@@H]2OCCN(c3ccc(-c4c(C)cc(C)cc4O)nn3)[C@H]2C1 (racemic) [Example 257, 1-[rac-(4aS,7aS)-4-[6-(2-hydroxy-4,6-dimethylphenyl)pyridazin-3-yl]-2,3,4a,5,7,7a-hexahydropyrrolo[3,4-b][1,4]oxazin-6-yl]ethanone] | 7.49 µM |
| Cc1cc(C(F)(F)F)cc(O)c1-c1ccc(N2CCO[C@@H]3CN(C)C[C@H]32)nn1 (racemic) [Example 289, 3-methyl-2-[6-[rac-(4aR,7aR)-6-methyl-2,3,4a,5,7,7a-hexahydropyrrolo[3,4-b][1,4]oxazin-4-yl]pyridazin-3-yl]-5-(trifluoromethyl)phenol] | 0.14 µM |
| Cc1cc(C)c(-c2ccc(N3CCC[C@@H]4CCN(C)C(=O)[C@@H]43)nn2)c(O)c1 (racemic) [Example 290, rac-(4aR,8aR)-1-[6-(2-hydroxy-4,6-dimethyl-phenyl)pyridazin-3-yl]-7-methyl-3,4,4a,5,6,8a-hexahydro-2H-1,7-naphthyridin-8-one] | 0.145 µM |
| Cc1cc(C)c(-c2ccc(N3CCC[C@@H]4CCNC(=O)[C@@H]43)nn2)c(O)c1 (racemic) [Example 300, rac-(4aR,8aR)-1-[6-(2-hydroxy-4,6-dimethyl-phenyl)pyridazin-3-yl]-2,3,4,4a,5,6,7,8a-octahydro-1,7-naphthyridin-8-one] | 0.177 µM |
| Cc1cc(C(F)(F)F)cc(O)c1-c1ccc(N2CCO[C@@H]3CNC[C@H]32)nn1 (racemic) [Example 318, 3-methyl-2-[6-[rac-(4aR,7aR)-3,4a,5,6,7,7a-hexahydro-2H-pyrrolo[3,4-b][1,4]oxazin-4-yl]pyridazin-3-yl]-5-(trifluoromethyl)phenol; hydrochloride] | 0.883 µM |
| Cc1cc(C(F)(F)F)cc(O)c1-c1ccc(N2CCO[C@H]3CNC[C@H]32)nn1 (racemic) [Example 320, 3-methyl-2-[6-[rac-(4aR,7aS)-3,4a,5,6,7,7a-hexahydro-2H-pyrrolo[3,4-b][1,4]oxazin-4-yl]pyridazin-3-yl]-5-(trifluoromethyl)phenol] | 0.116 µM |
| CC(=O)N1C[C@@H]2OCCN(c3ccc(-c4c(C)cc(C(F)(F)F)cc4O)nn3)[C@@H]2C1 (racemic) [Example 335, 1-[rac-(4aR,7aS)-4-[6-[2-hydroxy-6-methyl-4-(trifluoromethyl)phenyl]pyridazin-3-yl]-2,3,4a,5,7,7a-hexahydropyrrolo[3,4-b][1,4]oxazin-6-yl]ethanone] | 0.481 µM |
| CC(=O)N1C[C@@H]2[C@@H](C1)OCCN2c1ccc(-c2c(C)cc(C(F)(F)F)cc2O)nn1 (racemic) [Example 337, 1-[rac-(4aR,7aR)-4-[6-[2-hydroxy-6-methyl-4-(trifluoromethyl)phenyl]pyridazin-3-yl]-2,3,4a,5,7,7a-hexahydropyrrolo[3,4-b][1,4]oxazin-6-yl]ethanone] | 2.88 µM |
| Cc1cc(C(F)(F)F)cc(O)c1-c1ccc(N2CC[C@@H]3NCC[C@@H]32)nn1 (racemic) [Example 346, 3-methyl-2-[6-[rac-(3aS,6aS)-2,3,3a,5,6,6a-hexahydro-1H-pyrrolo[3,2-b]pyrrol-4-yl]pyridazin-3-yl]-5-(trifluoromethyl)phenol;hydrochloride] | 0.212 µM |
| Cc1cc(C(F)(F)F)cc(O)c1-c1ccc(N2CC[C@@H]3CCN(C)C[C@H]32)nn1 (racemic) [Example 364, 2-[6-[rac-(3aS,7aS)-6-methyl-3,3a,4,5,7,7a-hexahydro-2H-pyrrolo[2,3-c]pyridin-1-yl]pyridazin-3-yl]-3-methyl-5-(trifluoromethyl)phenol] | 0.858 µM |
| CCN1CC2OCCN(c3ccc(-c4c(C)cc(C(F)(F)F)cc4O)nn3)C2C1 (racemic) [Example 376, 3-methyl-2-[6-[rac-(4aR,7aR)-6-ethyl-2,3,4a,5,7,7a-hexahydropyrrolo[3,4-b][1,4]oxazin-4-yl]pyridazin-3-yl]-5-(trifluoromethyl)phenol] | 0.18 µM |
| CC(=O)N1CC[C@H]2[C@@H]1CCN2c1ccc(-c2c(C)cc(C(F)(F)F)cc2O)nn1 (racemic) [Example 377, 1-[rac-(3aS,6aS)-1-[6-[2-hydroxy-6-methyl-4-(trifluoromethyl)phenyl]pyridazin-3-yl]-2,3,3a,5,6,6a-hexahydropyrrolo[3,2-b]pyrrol-4-yl]ethanone] | 0.296 µM |
| CC(=O)N1CC[C@H]2CCN(c3ccc(-c4c(C)cc(C)cc4O)nn3)[C@H]2C1 (racemic) [Example 394, 1-[rac-(3aR,7aR)-1-[6-(2-hydroxy-4,6-dimethyl-phenyl)pyridazin-3-yl]-3,3a,4,5,7,7a-hexahydro-2H-pyrrolo[2,3-c]pyridin-6-yl]ethanone] | 0.31 µM |
| Cc1cc(C)c(-c2ccc(N3CCO[C@@H]4CCOC[C@@H]43)nn2)c(O)c1 (racemic) [Example 403, 3,5-dimethyl-2-[6-[rac-(4aS,8aR)-3,4a,5,7,8,8a-hexahydro-2H-pyrano[4,3-b][1,4]oxazin-4-yl]pyridazin-3-yl]phenol] | 0.366 µM |
| Cc1cc(C)c(-c2ccc(N3CCOC4CCOCC43)nn2)c(O)c1 (racemic) [Example 421, 3,5-dimethyl-2-[6-[rac-(4aS,8aS)-3,4a,5,7,8,8a-hexahydro-2H-pyrano[4,3-b][1,4]oxazin-4-yl]pyridazin-3-yl]phenol] | 1.23 µM |
| Cc1cc(C(F)(F)F)cc(O)c1-c1ccc(N2CCO[C@@H]3CCOC[C@@H]32)nn1 (racemic) [Example 438, 3-methyl-2-[6-[rac-(4aS,8aR)-3,4a,5,7,8,8a-hexahydro-2H-pyrano[4,3-b][1,4]oxazin-4-yl]pyridazin-3-yl]-5-(trifluoromethyl)phenol] | 0.411 µM |
| Cc1cc(C(F)(F)F)cc(O)c1-c1ccc(N2CCO[C@H]3CCOC[C@@H]32)nn1 (racemic) [Example 448, 3-methyl-2-[6-[rac-(4aS,8aS)-3,4a,5,7,8,8a-hexahydro-2H-pyrano[4,3-b][1,4]oxazin-4-yl]pyridazin-3-yl]-5-(trifluoromethyl)phenol] | 0.37 µM |
| CCc1cc(C(F)(F)F)cc(O)c1-c1ccc(N2CC[C@@H]3CCN(C)C[C@@H]32)nn1 (racemic) [Example 452, 2-[6-[rac-(3aS,7aR)-6-methyl-3,3a,4,5,7,7a-hexahydro-2H-pyrrolo[2,3-c]pyridin-1-yl]pyridazin-3-yl]-3-ethyl-5-(trifluoromethyl)phenol] | 0.005 µM |
| CCN1CC[C@H]2CCN(c3ccc(-c4c(O)cccc4C(F)(F)F)nn3)[C@H]2C1 (racemic) [Example 458, 2-[6-[rac-(3aS,7aR)-6-ethyl-3,3a,4,5,7,7a-hexahydro-2H-pyrrolo[2,3-c]pyridin-1-yl]pyridazin-3-yl]-3-(trifluoromethyl)phenol] | 0.002 µM |
| CCc1cc(C)cc(O)c1-c1ccc(N2CC[C@@H]3CCN(C)C[C@@H]32)nn1 (racemic) [Example 459, 3-ethyl-5-methyl-2-[6-[rac-(3aS,7aR)-6-methyl-3,3a,4,5,7,7a-hexahydro-2H-pyrrolo[2,3-c]pyridin-1-yl]pyridazin-3-yl]phenol] | 0.001 µM |
| CCN1CC[C@H]2CCN(c3cc(C)c(-c4ccc(C)cc4O)nn3)[C@H]2C1 (racemic) [Example 460, 2-[6-[rac-(3aS,7aR)-6-ethyl-3,3a,4,5,7,7a-hexahydro-2H-pyrrolo[2,3-c]pyridin-1-yl]-4-methyl-pyridazin-3-yl]-5-methyl-phenol] | < 0.0003 µM |
| Cc1cc(C(F)(F)F)cc(O)c1-c1ccc(N2CC[C@H]3[C@@H]2CCN3C)nn1 (racemic) [Example 484, 3-methyl-2-[6-[rac-(3aS,6aS)-1-methyl-2,3,3a,5,6,6a-hexahydropyrrolo[3,2-b]pyrrol-4-yl]pyridazin-3-yl]-5-(trifluoromethyl)phenol] | 0.025 µM |
| Cc1ccc(-c2nnc(N3CC[C@@H]4CCN(C(C)C)C[C@@H]43)cc2C)c(O)c1 (racemic) [Example 528, 5-methyl-2-[4-methyl-6-[rac-(3aS,7aR)-6-isopropyl-3,3a,4,5,7,7a-hexahydro-2H-pyrrolo[2,3-c]pyridin-1-yl]pyridazin-3-yl]phenol] | 0.0049 µM |
